Like-named read-outs stand apart in the source and are kept apart here.
Legend:
Type in all cases: cell-based, human
K562 cells [1] = experiment: Trypan blue exclusion test, proliferation (GI50); settings: Homo sapiens
Description: (§1) Cell proliferation and viability were assessed by the trypan blue exclusion method (Lonza), and viable cells were counted using a hematocytometer (Marienfeld, Lauda-Königshofen, Germany). Differential toxicity was calculated by comparing the viability of RPMI 1788 cells to the viability of cancer cells (normal/cancer cells). The difference in viability was expressed in terms of fold change.

RPMI 1788 = experiment: Trypan blue exclusion test, viability (IC50) in noncancerous cells; settings: for IC50: Homo sapiens, read-out: IC50 (50% cell death)
Description: as §1

K562 cells [2] = experiment: Annexin V APC/PI staining quantified by FACS
Description: The percentage of apoptotic cells was quantified as the fraction of cells showing fragmented nuclei, as assessed by fluorescence microscopy (Nikon, Tokyo, Japan) after staining with Hoechst 33342 (Sigma-Aldrich) and propidium iodide (Sigma-Aldrich). In addition, apoptosis was confirmed by Annexin V APC (Biolegend, 640919)/propidium iodide (BD Biosciences, 556547) staining and fluorescence-activated cell sorter (FACS) analysis according to the manufacturer protocol (BD Biosciences, 556547).

K562 cells [3] = experiment: Cell cycle analysis (PI, FACS)
Description: Cells were collected and fixed in 70% ethanol. DNA was stained with propidium iodide (PI) solution (1 μg/mL, Sigma-Aldrich, St. Louis, MO, USA) in 1XPBS (Biosesang, Seongnam, Korea) for 30 min at 37 °C, supplemented with RNase A (100 μg/mL, Roche, Basel, Switzerland). Samples were analyzed by flow cytometry using the FACSCalibur^TM system, Becton Dickinson (BD) Biosciences (San Jose, CA, USA). Data were recorded statistically (10,000 events/sample) using the Cell Quest software (BD Biosciences) and analyzed using Flow-Jo 8.8.5 software (Tree Star, Inc., Ashland, OR, USA).

[4] = K562, 24 h, EE-84 30 μM, with z-VAD-fmk (50 μM)

## COc1ccc2c(c1)c(C(=O)C(=O)Nc1sc3c(c1C(C)=O)CC(C)CC3)cn2Cc1ccccc1 (stereo not drawn) [EE-84, N-(3-Acetyl-4,5,6,7-Tetrahydro-5-Methylbenzo[b]Thiophen-2-yl)-2-(1-Benzyl-5-Methoxy-1H-Indol-3-yl)-2-Oxoacetamide]
K562 cells [1]; K562, 48 h
  GI50: 32.2 ± 3.91 µM
K562 cells [1]; K562, 72 h
  GI50: 19.1 ± 0.8 µM
RPMI 1788; RPMI 1788, 24 h
  IC50: > 50 µM
RPMI 1788; RPMI 1788, 48 h
  IC50: > 50 µM
RPMI 1788; RPMI 1788, 72 h
  IC50: > 50 µM
RPMI 1788; at 40 and 50 µM, viability normal/cancer cells
  differential toxicity RPMI-1788/K562 cells: significant differential toxicity
RPMI 1788; up to 50 µM, Figure S4B
  viability of RPMI 1788 cells: did not significantly affect
K562 cells [2]; K562, 24 h, EE-84 30 μM
  AnnV+/PI+ (%): 2.98 ± 0.23%
  AnnV+/PI− (%): 6.00 ± 1.43%
  Combined cell death (%): 8.98 ± 2.14%
K562 cells [2]; [4]
  AnnV+/PI+ (%): 3.13 ± 0.21%
  AnnV+/PI− (%): 5.33 ± 1.35%
  Combined cell death (%): 8.46 ± 1.55%
K562 cells [2]; K562, EE-84 10 μM (Figure 3B)
  AnnV+/PI+ (%): 2.50 ± 0.62%
  AnnV+/PI− (%): 7.05 ± 1.46%
  Combined cell death (%): 9.55 ± 3.22%
K562 cells [2]; K562, EE-84 20 μM (Figure 3B)
  AnnV+/PI+ (%): 4.40 ± 0.94%
  AnnV+/PI− (%): 5.60 ± 1.98%
  Combined cell death (%): 10.00 ± 0.85%
K562 cells [2]; K562, EE-84 30 μM (Figure 3B)
  AnnV+/PI+ (%): 7.51 ± 2.70%
  AnnV+/PI− (%): 6.65 ± 2.29%
  Combined cell death (%): 14.16 ± 0.61%
K562 cells [2]; K562, EE-84 40 μM (Figure 3B)
  AnnV+/PI+ (%): 8.97 ± 1.03%
  AnnV+/PI− (%): 7.71 ± 2.10%
  Combined cell death (%): 16.68 ± 0.89%
K562 cells [2]; K562, EE-84 50 μM (Figure 3B)
  AnnV+/PI+ (%): 8.25 ± 1.95%
  AnnV+/PI− (%): 8.22 ± 3.12%
K562 cells [3]; K562, 48 h, EE-84 10 μM
  G1 cell cycle phase: 59.59 ± 1.12%
  G2/M cell cycle phase: 18.64 ± 0.75%
  S cell cycle phase: 20.30 ± 1.68%
  Sub-G1 cell cycle phase: 1.48 ± 0.81%
K562 cells [3]; K562, 48 h, EE-84 30 μM
  G1 cell cycle phase: 61.11 ± 1.58%
  G2/M cell cycle phase: 13.25 ± 0.32%
  S cell cycle phase: 20.99 ± 0.83%
  Sub-G1 cell cycle phase: 4.65 ± 2.42%
K562 cells [3]; K562, 48 h, EE-84 50 μM
  G1 cell cycle phase: 58.40 ± 2.81%
  G2/M cell cycle phase: 12.86 ± 1.46%
  S cell cycle phase: 20.41 ± 1.84%
  Sub-G1 cell cycle phase: 8.34 ± 1.51%
K562 cells [3]; K562, 72 h, EE-84 10 μM
  G1 cell cycle phase: 60.83 ± 2.33%
  G2/M cell cycle phase: 17.57 ± 0.90%
  S cell cycle phase: 17.52 ± 4.24%
  Sub-G1 cell cycle phase: 4.08 ± 2.80%
K562 cells [3]; K562, 72 h, EE-84 30 μM
  G1 cell cycle phase: 55.09 ± 2.26%
  G2/M cell cycle phase: 17.03 ± 2.69%
  S cell cycle phase: 21.55 ± 1.64%
  Sub-G1 cell cycle phase: 6.33 ± 0.74%
K562 cells [3]; K562, 72 h, EE-84 50 μM
  G1 cell cycle phase: 52.03 ± 2.99%
  G2/M cell cycle phase: 15.08 ± 2.89%
  S cell cycle phase: 19.85 ± 1.33%
  Sub-G1 cell cycle phase: 13.03 ± 1.19%
